According to ChEMBL document CHEMBL6103647, “Analgesic Grayanane-Derived Diterpenoids from the Flowers of Rhododendron molle” (J Nat Prod, 2025):

How the values were obtained:
[1] = system: Mus musculus; assay: Analgesic activity against acetic acid-induced Kunming writhing mouse model assessed as inhibition of writhing at 5 mg/kg, ip pre-incubated for 15 mins followed by acetic acid addition and measured after 15 mins relative to control; format: functional; conditions: 0.25 h
[2] = system: Mus musculus; assay: Analgesic activity against acetic acid-induced Kunming writhing mouse model assessed as inhibition of writhing at 1 mg/kg, ip pre-incubated for 15 mins followed by acetic acid addition and measured after 15 mins relative to control; format: functional; conditions: 0.25 h
[3] = system: Mus musculus; assay: Analgesic activity against acetic acid-induced Kunming writhing mouse model assessed as inhibition of writhing at 0.2 mg/kg, ip pre-incubated for 15 mins followed by acetic acid addition and measured after 15 mins relative to control; format: functional; conditions: 0.25 h
[4] = Toxicity in ip dosed Kunming mouse assessed as lethal dose; format: organism-based; conditions: in vivo
[5] = Therapeutic index, ratio of LD50 for toxicity in ip dosed Kunming mouse assessed as lethal dose to ED50 for analgesic activity against acetic acid-induced Kunming writhing mouse model assessed as effective dose; format: organism-based; conditions: in vivo, read-out: TI
[6] = system: Mus musculus; assay: Analgesic activity against acetic acid-induced ip dosed Kunming writhing mouse model assessed as effective dose pre-incubated for 15 mins followed by acetic acid addition and measured after 15 mins; format: functional; conditions: 0.25 h
[7] = Toxicity in Kunming mouse at 5 mg/kg, ip administered for 15 mins; format: organism-based; conditions: in vivo, 0.25 h

| SMILES | inhibition in vivo at 5 mg/kg [1] [%] | inhibition in vivo at 1 mg/kg [2] [%] | inhibition in vivo at 0.2 mg/kg [3] [%] | also measured |
| --- | --- | --- | --- | --- |
| CC1(C)[C@@H](O)[C@H](OC(=O)c2ccco2)[C@H]2[C@](C)(O)[C@@H]3CC[C@@H]4[C@@H](O)[C@@]3(C[C@@H](O)[C@@]21O)C[C@@]4(C)O | 74.1 | 50 | 71.5 | – |
| CC1=C2CC[C@@H]3[C@@H](O)[C@@]2(C[C@H]2O[C@@H](c4ccc(O)cc4)O[C@@]24C1[C@@H](O)[C@H](O)C4(C)C)C[C@@]3(C)O (stereo not given in full) | 74.1 | 50 | – | – |
| CC1(C)[C@@H](O)[C@H](OC(=O)[C@@]2(O)C[C@@H](O)[C@H](O)[C@H](OC(=O)/C=C/c3ccc(O)cc3)C2)[C@H]2[C@](C)(O)[C@@H]3CC[C@@H]4[C@@H](O)[C@@]3(C[C@@H](O)[C@@]21O)C[C@@]4(C)O | 74.1 | 50 | 77.2 | LD50 [4]: 131 mg/kg; selectivity ratio [5]: 1770; ED50 [6]: 0.074 mg/kg |
| CC1(C)[C@@H](O)[C@H](O)[C@H]2[C@](C)(O)[C@@H]3CC[C@@H]4[C@@H](O)[C@@]3(C[C@@H](O)[C@@]21O)C[C@@]4(C)O | – | – | – | selectivity ratio [5]: 24.5; ED50 [6]: 0.073 mg/kg |
| CC(=O)O[C@@H]1C[C@]23C[C@@](C)(O)[C@@H]4CC[C@H]2[C@@](C)(O)[C@@H]2[C@@H](O[C@@H]5[C@H]6CC[C@H]7[C@@](C)(O)[C@@H]8[C@@H](O[C@H]43)[C@H](O)C(C)(C)[C@@]8(O)[C@H](OC(C)=O)C[C@@]57C[C@@]6(C)O)[C@H](O)C(C)(C)[C@@]12O | 74.1 | – | – | – |
| CN1CC[C@]23c4c5ccc(O)c4O[C@H]2[C@@H](O)C=C[C@H]3[C@H]1C5 [MORPHINE] | – | – | 39.4 | – |
| CC1(C)[C@@H](O)[C@@H]2O[C@@H]3[C@H]4CC[C@H]5[C@@](C)(O)[C@@H]6[C@@H](O[C@@H]7[C@H]8CC[C@H]9[C@@](C)(O)[C@H]2[C@]1(O)[C@H](O)C[C@@]79C[C@@]8(C)O)[C@H](O)C(C)(C)[C@@]6(O)[C@H](O)C[C@@]35C[C@@]4(C)O | 74.1 | 50 | – | – |
| CC1(C)[C@@H](O)[C@H](OC(=O)c2cccnc2)[C@H]2[C@](C)(O)[C@@H]3CC[C@@H]4[C@@H](O)[C@@]3(C[C@@H](O)[C@@]21O)C[C@@]4(C)O | – | 50 | – | Activity [7]: Toxic |
| CC1=C2CC[C@@H]3[C@@H](O)[C@@]2(C[C@@H](O)[C@@]2(O)[C@H]1[C@@H](Cl)[C@H](O)C2(C)C)C[C@@]3(C)O | – | 50 | – | – |
